Test results reported in patent US5814612A, “Retinol derivatives and uses thereof” (priority 1992, dated 1998).

Experiments:
lymphoblastoid 5/2 cells = assay: Conversion of 13,14DHR to 14HRR by lymphoblastoid cells; assay type: in vitro ADME, human; conditions: 10^-6 M, 1 and 2 hours, ITLB medium
Procedure: FIGS. 25A through 25D. 13,14DHR can be converted to 14HRR by lymphoblastoid cells. 200,000 5/2 cells/ml were incubated with or without 10^-6 M 13,14DHR added in serum-free ITLB medium. After 1 and 2 hours, cells pellets corresponding to 10 ml of culture were delipidated and the corresponding lipid fractions separated on an analytical C18 reversed-phase column according to FIG. 20. Peaks were identified according to their retention times and their UV absorption patterns.
Lymphoblastoid 5/2 cells devoid of retinol were cultured in the presence or absence of 10^-6 M 13,14DHR for 1 and 2 hours in ITLB medium. The retinoids extracted from the cell pellets were separated by HPLC according to FIG. 20. […] There was no 14HRR measurable in control cultures.

5/2 cells = assay: Growth-supporting activity on 5/2 cells in serum-free ITLB medium; assay type: cell-based, human
Procedure: The assay was done in 96-well microtiter plates in a final volume of 200 ul/well. The cells were cultured for 72 hours and cell growth determined by [^3 H] thymidine (0.8 μCi/well)labeling for the last 16 hours. Retinoids were added at the indicated concentrations at the initiation of culture and every 24 hours thereafter.
5/2 cells were grown in the absence of retinol in a medium containing the basic RPMI 1640 amino acid/salt mixture, insulin (5 μg/ml), transferrin (5 μg/ml), albumin (0.1%) and linoleic acid (10^-6 M) (ITLB). […] The dose-response curve shown in FIG. 26 indicates an effective concentration of 10^-7 M.

5/2 lymphoblastoid cells = assay: Kinetics of biosynthesis of 13,14DHR and 14HRR from 3H retinol in 5/2 lymphoblastoid cells; assay type: in vitro ADME, human
Procedure: FIG. 24. Kinetics of biosynthesis of 14HRR in lymphoblastoid cells. 50 ml ITLB 600,000 5/2 cells/ml were incubated with 20 μCi of ^3 H retinol in serum-free ITLB medium. Cell pellets corresponding to 10 ml of culture were delipidated at 20 minute intervals and the corresponding lipid fraction separated on an analytical C18 reversed-phase column (see FIG. 20). Radioactive peaks were identified by coelution with cold reference retinoids.
The kinetics of biosynthesis of 13,14DHR and 14HRR were determined in 5/2 lymphoblastoid cells. These cells were cultured in the presence of ^3 H retinol for different time periods, and the cell-associated retinoids extracted as referenced above. They were then chromatographed on an analytical C18 column as described in FIG. 20. The sizes of peaks emerging at 16.8 minutes, representing 13,14DHR, and 18.5 minutes, representing 14HRR, were measured and plotted in the bar diagram of FIG. 24.

T cells = assay: T cell activation and proliferation, retinol cofactor requirement; assay type: cell-based, murine
Procedure: They were seeded into 96-well flat-bottom plates at varying cellular densities in a final volume of 100 μl. In control experiments, cells were cultured in medium containing 10% FCS or 3% human serum and 5×10^-5 M 2ME. […] Cultures were carried out in duplicate. Plates were incubated at 37° C. in a humidified 5% CO2 atmosphere. Cellular proliferation was determined by [^3 H] thymidine uptake (0.5 uCi/well; New England Nuclear, Boston, Mass.) after the incubation times indicated for each experiment with a 4 hour labeling pulse. Cells were harvested onto glass filter and [^3 H]TdR incorporation was determined by liquid scintillation counting. The data presented are the means of duplicate or six replicate cultures. The restriction to duplicate measurements was necessary to conserve scarce 14HRR. […] Each experiment was repeated at least twice.

CD4^+ T lymphocytes = assay: Proliferation of anti-CD3 activated CD4+ T lymphocytes; assay type: cell-based, BALB/c mouse
From the text: (§1) Growth curves of lymph node T cells depleted of antigen-presenting cells (FIG. 17A) with and without 10^-6 M retinol at 2×10^5 and 5×10^4 cells/well. (FIG. 17B) Dose-responses elicited by different retinoids in cultures of lymph node T cells depleted of antigen-presenting cells. Also shown are the growth curves of CD4^+ (FIG. 17C) and CD8^+ T lymphocytes (FIG. 17D) in the presence of either retinol, 14HRR, human serum or in their absence.
(§2) T lymphocytes, purified as described, 5×10^4 /well, were activated with immobilized anti-CD3 antibody in ITLB medium. The indicated amounts of retinoids or human serum were added at initiation of cultures. […] 14HRR was added every 12 hours. DNA synthesis was measured by a 4 hour pulse with tritiated thymidine. SDs were ≤17%.
(§3) Mature T cells were obtained from pooled intestinal, axillary, inguinal and submandibular lymph nodes of 4 to 10-week-old BALB/c mice. To fractionate cells into CD4 and CD8 subsets and at the same time remove APC, a combination of adherence and complement lysis was used as follows:
(§4) The cell suspension in a volume of 2 ml was applied to a nylon wool column (40) (0.6 g of washed nylon fibers in the barrel of a 10 ml syringe) and incubated at 37° C. for 40 min. […] The success of the enrichment procedures was monitored cytofluorimetrically using FITC-conjugated anti-CD8 and PE-conjugated anti-CD4. […]

CD8^+ T lymphocytes = assay: Proliferation of anti-CD3 plus IL-2 activated CD8+ T lymphocytes; assay type: cell-based, BALB/c mouse
From the text: as §1, §2, §3, §4

B lymphocytes = conditions: previous analyses with B lymphocytes (ref. 33); cited from earlier work
[1] = tested on: lymphoblastoid cells (LCL); conditions: cited from earlier work
lymph node T cells = assay: Proliferation of anti-CD3 activated lymph node T cells; assay type: cell-based, BALB/c mouse
From the text: as §1, §2, §3, §4
Cells were cultured in serum-free medium, referred to as ITLB, containing RPMI 1640 supplemented with 8×10^-7 M insulin (5 μg/ml), 7×10^-8 M transferrin (5 μg/ml), 2×10^-6 M linoleic acid, 2×10^-6 M delipidated BSA (0.12 mg/ml), 2 mM L-glutamine, 1 mM sodium pyruvate and antibiotics. […] The optimal concentration for stimulation of T cells was determined for each batch of anti-CD3 mAb and Con A. The optimal range of Con A was particularly narrow in serum-free medium (0.5-0.2 μg/ml) and varied with the cell density used. […] Cellular proliferation was determined by [^3 H] thymidine uptake (0.5 uCi/well; New England Nuclear, Boston, Mass.) after the incubation times indicated for each experiment with a 4 hour labeling pulse. […]

[2] = tested on: activated human thymocytes; conditions: cited from earlier work
thymocytes = assay: Proliferation of anti-CD3 activated thymocytes in serum-free ITLB medium; assay type: cell-based, BALB/c mouse
Procedure: FIG. 14A: Purified BALB/c thymocytes were activated with immobilized anti-CD3e antibody and cultivated for four days in ITLB medium with or without retinol (3×10^-6 M), 14HRR (6×10^-7 M) (fresh 14HRR was added every 12 hours), human serum (3%) or FCS (10%) at the cellular densities shown. Proliferation was assayed by tritiated thymidine incorporation into cellular DNA.
FIG. 14B: BALB/c thymocytes (10^6 /ml) were added to microtiter plates coated with titrated amounts of anti-CD3e antibody with […] retinol or without, as indicated. Proliferation was measured in hexaduplicate wells on day 3 by ^3 H thymidine incorporation assay.
Purified thymocytes (5×10^5 cells/well) were stimulated by TCR crosslinking with immobilized anti-CD3e antibody (FIG. 15A) or 0.4 μg/ml Con A (FIG. 15B) in serum-free ITLB medium. The indicated amounts of retinoids were added either once at the beginning of the experiment (marked as "1×") or every 12 hours thereafter (marked as "6×"). DNA synthesis was measured after 72 hours by tritiated thymidine uptake as described.
Purified thymocytes (10^5 cells/well) were activated with anti-CD3 antibody in ITLB medium with or without retinol (3×10^-6 M), 14HRR (6×10^-7, added every 12 hours or human serum (3%)). DNA synthesis was measured daily by a 4 hour pulse of tritiated thymidine.
Thymocytes (5×10^4 /well) were activated by immobilized anti-CD3 mAb in medium ITLB. Retinol (2×10^-6 M) was added at initiation of culture, or delayed by 12 hours and 24 hours, respectively, or omitted altogether. ^3 H thymidine pulses of 4 hours were used to measure DNA synthesis of hexaduplicate wells.
Thymuses of 3 to 6-week-old BALB/c mice were teased in serum-free RPMI medium supplemented with 1% BSA, 10^-6 M linoleic acid and antibiotics. Depletion of accessory cells was achieved by two cycles of complement-dependent lysis with a mixture of anti-IA^d (5 μg/ml) and anti-IE^d (1:500 diluted ascites fluid). Briefly, cells were incubated on ice for 30 minutes with Ia antibodies, spun down, resuspended in 1:40 diluted rabbit complement, and incubated at 37° C. for 45 minutes. Incubations and two subsequent washes were carried out with RPMI medium containing 1% BSA. Cell viability was evaluated by trypan blue dye exclusion. To determine the extent of depletion of accessory cells, samples were stained with FITC-conjugated anti-Fc receptor antibody and analyzed by flow cytometry on a FACScan instrument (Becton Dickinson).
Cells were cultured in serum-free medium, referred to as ITLB, containing RPMI 1640 supplemented with 8×10^-7 M insulin (5 μg/ml), 7×10^-8 M transferrin (5 μg/ml), 2×10^-6 M linoleic acid, 2×10^-6 M delipidated BSA (0.12 mg/ml), 2 mM L-glutamine, 1 mM sodium pyruvate and antibiotics. They were seeded into 96-well flat-bottom plates at varying cellular densities in a final volume of 100 μl. In control experiments, cells were cultured in medium containing 10% FCS or 3% human serum and 5×10^-5 M 2ME. T cells and thymocytes were activated with immobilized, purified anti-mAb CD3e or by the addition of Con A in the presence or absence of different concentrations of retinoids. Unless indicated otherwise, retinoids were replenished every 12 hours to maintain a reasonably constant concentration of these labile compounds in culture. […] Cultures were carried out in duplicate. Plates were incubated at 37° C. in a humidified 5% CO2 atmosphere. Cellular proliferation was determined by [^3 H] thymidine uptake (0.5 uCi/well; New England Nuclear, Boston, Mass.) after the incubation times indicated for each experiment with a 4 hour labeling pulse.

In the case of `CC1=C(/C=C/C(C)=C/C=C/C(C)(O)C(O)CO)C(C)(C)CCC1` (stereo not drawn) [13,14DHR, 13,14-dihydroxy-retinol], the “conversion to 14HRR” value (lymphoblastoid 5/2 cells) is reported as “produced 14HRR”, the “restoration of proliferation in absence of retinol” value (5/2 cells) is reported as “proliferation was restored as well” and the “order of metabolite production” value (5/2 lymphoblastoid cells) is reported as “production of 13,14DHR precedes that of 14HRR”. The “ability to substitute for retinol in T cell activation (words)” value (T cells) was “can effectively substitute for retinol”.

For `CC1=C(/C=C/C(C)=C/C=C/C(C)=C/C=O)C(C)(C)CCC1` [all-trans retinal], the “response of CD4+ subset to anti-CD3” value (CD4^+ T lymphocytes) is listed as “responded to the activating signal”, the “response of CD8+ subset to anti-CD3 plus IL-2” value (CD8^+ T lymphocytes) is listed as “responded to the activating signal” and the active concentration (B lymphocytes) is listed as 200 nM. For the same compound, the “support of growth of LCL in serum-free medium” value [1] was “support the growth of LCL in serum-free medium”, the “stimulation of lymph node T cells” value (lymph node T cells) was “dependent on the presence of retinal” and the “support of growth of activated human thymocytes” value [2] was “The same is true for activated human thymocytes”. For the same compound, the “effect of delayed addition” value (thymocytes; addition delayed by 24 hours) was “complete failure of activation”, the “effectiveness relative to retinol” value (thymocytes; anti-CD3, 14HRR at 12 hour intervals) was “equally effective as all-trans retinol” and the optimally effective dose (thymocytes; given once in a 3-day culture) was 2 µM. The optimally effective dose (thymocytes; provided at 12 hour intervals) was 0.2 µM and the “ability to substitute for retinol in T cell activation (words)” value (T cells) was “can substitute for retinal”.
